Data published in patent US4593090A, “Novel nitrosourea compounds, method for preparing same, and pharmaceutical composition containing same” (Gogo Kimura, priority 1981, dated 1986).
Read-outs that look alike come from different tables or passages of the source.

How the values were obtained:
Leukemia L1210 [1] = experiment: Activity against Leukemia L1210, oral, increase in life span of mice; assay type: in vivo, female mice (BDF1 family)
In short: (§1)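 Female BDF1 mice (20 to 23 g, 6 per group) implanted ip with 1×10^5 L1210 cells; test compound given ip or orally once daily for 5 days starting 24 h later. ILS% from mean survival days vs untreated controls over 60 days; T.R. = O.D./ILS30.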

[2] = Acute toxicity (LD50, Behrens-Karber method); assay type: in vivo, ICR mice; conditions: mouse, in vivo, ip, mortality during 30 days
Procedure: Test compounds, dissolved or suspended in 0.5% aqueous CMC, were each intraperitoneally administered to ICR mice in a dose of 0.1 ml per 10 g body weight. LD50 (mg/kg) value of each test compound was calculated from the mortality of mice during 30 days by the Behrens-Karber method.

Leukemia L1210 [3] = experiment: Activity against Leukemia L1210, intraperitoneal, increase in life span of mice; assay type: in vivo, female mice (BDF1 family); conditions: for ED (maximum ILS) / ED30: Mus musculus, L1210, ip, ip once a day for 5 successive days; for ED (maximum ILS): daily dosage giving maximum increase of life span, read-out: O.D. (optimum dosage); for ED30: daily dosage increasing average survival days by 30%, read-out: ILS30; for Survivors after 60 days / Max. ILS % / Therapeutic ratio TR: ip; for Survivors after 60 days: 6-membered group; for Max. ILS %: 60-day observation, versus control; for Therapeutic ratio TR: O.D./ILS30
In short: as §1

Ehrlich acites carcinoma = experiment: Growth-inhibiting effect against Ehrlich acites carcinoma; assay type: in vivo, male mice; conditions: Mus musculus, Ehrlich, 120 h, 5 days; for response vs control in vivo at 25 mg/kg: 25 mg/kg/day ip; for response vs control in vivo at 100 mg/kg: 100 mg/kg/day ip
In short: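 Male mice (groups of 6) implanted intraperitoneally with 1×10^7 Ehrlich ascites cells; compounds in 1% Nikkol HCO-60 given i.p. once daily for 5 days starting 24 hrs post-implantation. Total packed cell volume measured at day 7; T/C% vs untreated group, scored - (100-66), + (65-41), ++ (40-11), +++ (10-0).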

[4] = Diuretic activity, acute sodium loaded mouse screening test; assay type: in vivo, male mice; conditions: 50 mg/kg oral in 1% saline; for Cl^- / K^+ / Na^+: urine
Procedure: The diuretic activity of the compounds of this invention was assayed by the diuresis screening test referred to as "acute sodium loaded mouse". This test was carried out by the following method.
The acute sodium loaded mouse screening test was carried out by using a 10-membered group of male mice (each weighing 18 to 24 g). Test compounds were incorporated in 1% saline (NaCl) solution and orally administered in a volume of 10 ml/kg. The mice were placed in metabolic cages. Each treated group consisted of 10-members. Five members were placed in one cage. Tests were conducted by oral administrations of (A) 1% saline (NaCl) solution to the control group and (B) 1% saline (NaCl) solution containing a test compound according to this invention.
The determination was carried out for sodium, potassium, and chlorine in each pooled urine sample. The determination of sodium and potassium was carried out by flame photometer. Chlorine was determined by chloride analysis apparatus. The analytical values of sodium, potassium, and chlorine were shown with an average mg equivalent (m Eq)/Kg/5 hours, and the diuretic activity was shown with an average urine volume (ml)/Kg/5 hours.

SMILES | ED (maximum ILS) (Leukemia L1210 [1]; Mus musculus, L1210, oral once a day for 5 successive days, daily dosage giving maximum increase of life span, read-out: O.D. (optimum dosage)) [mg/kg] | ED30 (Leukemia L1210 [1]; Mus musculus, L1210, oral once a day for 5 successive days, daily dosage increasing average survival days by 30%, read-out: ILS30) [mg/kg] | Survivors after 60 days (Leukemia L1210 [1]; oral, 6-membered group) | Max. ILS % (Leukemia L1210 [1]; oral, 60-day observation, versus control) [%] | Therapeutic ratio TR (Leukemia L1210 [1]; oral, O.D./ILS30) | LD50 at 720 h [2] [mg/kg] | ED (maximum ILS) (Leukemia L1210 [3]) [mg/kg] | ED30 (Leukemia L1210 [3]) [mg/kg] | Survivors after 60 days (Leukemia L1210 [3]) | Max. ILS % (Leukemia L1210 [3]) [%] | Therapeutic ratio TR (Leukemia L1210 [3]) | response vs control in vivo at 25 mg/kg (Ehrlich acites carcinoma; read-out: Activity) [%] | response vs control in vivo at 25 mg/kg (Ehrlich acites carcinoma; read-out: T/C %) [%] | response vs control in vivo at 100 mg/kg (Ehrlich acites carcinoma; read-out: Activity) [%] | response vs control in vivo at 100 mg/kg (Ehrlich acites carcinoma; read-out: T/C %) [%] | Urine volume [4] [ml/kg/5 hrs.] | Cl^- [4] [mEq/kg/5 hrs.] | K^+ [4] [mEq/kg/5 hrs.] | Na^+ [4] [mEq/kg/5 hrs.]
CC(C)CO[C@H]1O[C@H](CN(CC2CCCO2)C(=O)N(CCCl)N=O)[C@@H](O)[C@H](O)[C@H]1O (stereo partly drawn) [Compound 23, 3-tetrahydrofurfuryl-3-(isobutyl α-D-glucopyranose-6-yl)-1-(2-chloroethyl)-1-nitrosourea] | 250 | 8.74 | 5/6 | > 625 | 28.6 | 620 | 200 | 3 | 5/6 | > 630 | 66.7 | 0 to 10 | 0 | 0 to 10 | 0 | 10.2 | 0.8 | 1.0 | 0.7
CCCCO[C@H]1O[C@H](CO)[C@@H](O)[C@H](O)[C@H]1N(CCCOC)C(=O)N(CCCl)N=O [Compound 57, 3-(3-methoxy-n-propyl)-3-(n-butyl α-D-glucopyranose-2-yl)-1-(2-chloroethyl)-1-nitrosourea] |  |  |  |  |  | 570 | 190 | 5.5 | 3/6 | > 355 | 34.5 | 0 to 10 | 0 | 0 to 10 | 0 | 9.7 | 0.8 | 0.9 | 0.7
CCOCCCN(C(=O)N(CCCl)N=O)C1C(OC2CCCCC2)OC(CO)C(O)C1O [Compound 65, 3-(3-ethoxy-n-propyl)-3-(cyclohexyl α-D-glucopyranose-2-yl)-1-(2-chloroethyl)-1-nitrosourea] |  |  |  |  |  | 655 | 200 | 4.44 | 5/6 | > 620 | 45.0 | 0 to 10 | 0 | 0 to 10 | 0 | 8.8 | 0.7 | 0.8 | 0.6
COCCCN(C(=O)N(CCCl)N=O)C1C(OCC(C)C)OC(CO)C(O)C1O [Compound 74, 3-(3-methoxy-n-propyl)-3-(isobutyl α-D-glucopyranose-2-yl)-1-(2-chloroethyl)-1-nitrosourea] |  |  |  |  |  | 560 | 170 | 3.92 | 6/6 | > 700 | 43.2 | 0 to 10 | 0 | 0 to 10 | 0 | 9.4 | 0.7 | 0.8 | 0.6
COC(C)CN(C(=O)N(CCCl)N=O)C1C(O)C(CO)OC(OC2CCCCC2)C1O [Compound 86, 3-(2-methoxy-n-propyl)-3-(cyclohexyl α-D-glucopyranose-3-yl)-1-(2-chloroethyl)-1-nitrosourea] |  |  |  |  |  | 695 | 200 | 4.9 | 4/6 | > 430 | 40.8 | 0 to 10 | 0 | 0 to 10 | 0 | 10.2 | 0.9 | 1.0 | 0.7
COCCN(C(=O)N(CCCl)N=O)C1C(CO)OC(OCC(C)C)C(O)C1O [Compound 93, 3-(2-methoxyethyl)-3-(isobutyl α-D-glucopyranose-4-yl)-1-(2-chloroethyl)-1-nitrosourea] |  |  |  |  |  | 530 | 160 | 4.49 | 3/6 | > 370 | 35.6 | 0 to 10 | 0 | 0 to 10 | 0 | 9.6 | 0.7 | 0.9 | 0.6
COCC(C)N(C[C@H]1O[C@H](OCC(C)C)[C@H](O)[C@@H](O)[C@H]1O)C(=O)N(CCCl)N=O (stereo partly drawn) [Compound 110, 3-(1-methyl-2-methoxyethyl)-3-(isobutyl α-D-galactopyranose-6-yl)-1-(2-chloroethyl)-1-nitrosourea] |  |  |  |  |  | 680 | 200 | 3.69 | 4/6 | > 435 | 54.2 | 0 to 10 | 0 | 0 to 10 | 0 | 8.8 | 0.6 | 0.8 | 0.5
COC(C)CO[C@H]1O[C@H](CN(CC2CCCO2)C(=O)N(CCCl)N=O)[C@H](O)[C@H](O)[C@H]1O (stereo partly drawn) [Compound 117, 3-tetrahydrofurfuryl-3-(2-methoxy-n-propyl α-D-galactopyranose-6-yl)-1-(2-chloroethyl)-1-nitrosourea] |  |  |  |  |  | 610 | 200 | 3.3 | 6/6 | > 700 | 60.6 | 0 to 10 | 0 | 0 to 10 | 0 | 8.4 | 0.7 | 0.9 | 0.5
CCOCCCN(C(=O)N(CCCl)N=O)[C@H]1[C@H](OC(C)CC)OC[C@H](O)[C@@H]1O (stereo partly drawn) [Compound 157, 3-(3-ethoxy-n-propyl)-3-(sec-butyl α-L-arabinopyranose-2-yl)-1-(2-chloroethyl)-1-nitrosourea] |  |  |  |  |  | 550 | 170 | 2.94 | 6/6 | > 700 | 57.8 | 0 to 10 | 0 | 0 to 10 | 0 | 10.5 | 1.1 | 1.0 | 0.8
CC(C)(C)N(C[C@H]1O[C@H](OCCN2CCOCC2)[C@H](O)[C@@H](O)[C@@H]1O)C(=O)N(CCCl)N=O [Compound 181, 3-tert-butyl-3-(2-morpholinoethyl α-D-glucopyranose-6-yl)-1-(2-chloroethyl)-1-nitrosourea] |  |  |  |  |  | 530 | 160 | 2.89 | 6/6 | > 700 | 55.4 | 0 to 10 | 0 | 0 to 10 | 0 | 13.1 | 1.3 | 1.2 | 1.1
